Measurements published in PMC6792352, “Limited Chemical Structural Diversity Found to Modulate Thyroid Hormone Receptor in the Tox21 Chemical Library” (Environmental Health Perspectives, 2019).
Structures can show the parent of a compound that is named as a salt.

Assay: in vitro
Details: rat, gh3-tre-luc cells

Compound | CC50 at 24 h (AC50 (uM) modified / 1000) [µM] | further results
CCCOc1cc(N)ccc1C(=O)OCCN(CC)CC [Propoxycaine hydrochloride] | > 20 | –
O=C=Nc1ccc(Cl)cc1 [4-Chlorophenyl isocyanate] | > 90 | –
C=C[C@@H](C)CCC=C(C)C [(S)-Citronellene] | > 90 | –
COP(=O)(OC)OC(=CCl)c1cc(Cl)c(Cl)cc1Cl [Tetrachlorovinphos] | – | CC50 at 24 h (AC50 (uM) modified / 1000, Tox21_110001=Tox21_200092, viability, 1 nM T3 present, 24 h): > 100 µM
C=CCN1C(=O)C(CC(C)C)NC1=S (centres unmarked) [Albutoin] | > 50 | –
O=C1Nc2ccccc2C1(c1ccc(O)cc1)c1ccc(O)cc1 [Oxyphenisatin] | 61.2 | –
CC#N [Acetonitrile] | > 90 | –
CCOC(=O)COc1ccc2c(C)c(CCN(CC)CC)c(=O)oc2c1Cl [Cloricromen hydrochloride] | 31.2 | –
CCCCCCCCCOC(C)=O [Nonyl acetate] | > 90 | –
NC(=O)c1cc[n+](CC2=C(C(=O)[O-])N3C(=O)[C@@H](NC(=O)Cc4cccs4)[C@H]3SC2)cc1 [Cefalonium] | > 20 | –
Oc1cc(Cl)ccc1Cl [2,5-Dichlorophenol] | > 90 | –
O=C1CN=C(c2ccccc2)c2cc([N+](=O)[O-])ccc2N1 [Nitrazepam] | > 50 | –
CC(C)(C)N [tert-Butylamine] | > 90 | –
CCCCOCCOC(=O)CCCCCCCCC(=O)OCCOCCCC [Bis(2-butoxyethyl) decanedioate] | > 90 | –
O=C(CCl)C(Cl)Cl [1,1,3-Trichloropropanone] | – | CC50 at 24 h (AC50 (uM) modified / 1000, Tox21_110001=Tox21_202795, viability, 1 nM T3 present, 24 h): 13 µM
CCCCN(CCCC)CC(O)c1cc(Cl)cc2c1-c1ccc(Cl)cc1/C2=C/c1ccc(Cl)cc1 (centres unmarked) [Lumefantrine] | 38.5 | –
CC[C@@]1(O)C(=O)OCc2c1cc1n(c2=O)Cc2cc3c(CN(C)C)c(O)ccc3nc2-1 [Topotecan hydrochloride] | > 50 | –
O=C(CCCCCCCCc1cccnc1)N1CCC(C=C(c2ccccc2)c2ccccc2)CC1 [Ro 23-7637] | 26.1 | –
Nc1ccc2cc(S(=O)(=O)O)ccc2c1 [6-Aminonaphthalene-2-sulfonic acid] | > 90 | –
O=S(=O)(O)CCCS(=O)(=O)O [Disodium propane-1,3-disulfonate] | > 50 | –
COc1cc(C[C@H](C)N)c(OC)cc1Br [S-(+)-2,5-Dimethoxy-4-bromoamphetamine hydrochloride] | 61.8 | –
CC(C)(C)c1ccc(OC(=O)c2ccccc2O)cc1 [4-tert-Butylphenyl salicylate] | > 90 | –

Compound | CC50 at 24 h (AC50 (uM) modified / 1000) [µM] | further results
Cc1ccc(Cl)c(N)c1Cl [2,6-Dichloro-3-methylaniline] | > 90 | –
CCOCC(=O)O [Ethoxyacetic acid] | > 90 | –
Nc1cc(Cl)cc(Cl)c1 [3,5-Dichloroaniline] | > 90 | –
O=C1C2(Cl)C3(Cl)C4(Cl)C(Cl)(Cl)C5(Cl)C3(Cl)C1(Cl)C5(Cl)C24Cl (centres unmarked) [Kepone] | – | CC50 at 24 h (AC50 (uM) modified / 1000, Tox21_110001=Tox21_201592, viability, 1 nM T3 present, 24 h): 11.6 µM; CC50 at 24 h (AC50 (uM) modified / 1000, Tox21_110001=Tox21_300098, viability, 1 nM T3 present, 24 h): 10.7 µM
COC(OC)(C(=O)c1ccccc1)c1ccccc1 [2,2-Dimethoxy-1,2-diphenylethanone] | > 90 | –
OC[C@@H](O)[C@@H](O)[C@H](O)[C@@H](O)CO [D-Glucitol] | > 90 | –
NNCCc1ccccc1 [Phenylethylhydrazine sulfate] | 32.3 | –
C#C[C@]1(OC(=O)CCCCCC)CC[C@H]2[C@@H]3CCC4=CC(=O)CC[C@@H]4[C@H]3CC[C@@]21C [Noristerat] | 10.7 | –
CN1C[C@H](C(=O)N[C@]2(C)O[C@@]3(O)[C@@H]4CCCN4C(=O)[C@H](Cc4ccccc4)N3C2=O)C[C@@H]2c3cccc4[nH]cc(c34)C[C@H]21 [Dihydroergotamine] | 19.3 | –
CS/C(C)=N\OC(=O)N(C)SN(C)C(=O)O/N=C(\C)SC [Thiodicarb] | 39.7 | –
COC(=O)C1=C(C)NC(C)=C(C(=O)OC(C)C)C1c1cccc2nonc12 (centres unmarked) [Isradipine] | > 20 | –
CC(C)C(O)(c1ccc(OC(F)(F)F)cc1)c1cncnc1 (centres unmarked) [Flurprimidol] | > 90 | –
Clc1cc(Cl)c(Cl)cc1Cl [1,2,4,5-Tetrachlorobenzene] | > 90 | –
CC(C)(C)C(=O)C(Oc1ccc(Cl)cc1)n1ccnc1 (centres unmarked) [Climbazole] | > 50 | –
OCc1ccccc1O [Salicyl alcohol] | > 50 | –
O=C(CCN1CCC(c2ccccc2)C1)c1ccc2c(c1)OCCO2 (centres unmarked) [Proroxan] | 38.9 | –
C=CCCCCCCCCO [9-Decen-1-ol] | > 90 | –
CCCC1CCC(=O)O1 (centres unmarked) [1,4-Heptanolide] | > 90 | –
NCCOCCOCCN [2,2'-[Ethane-1,2-diylbis(oxy)]diethanamine] | > 90 | –
CCOCC(C)O (centres unmarked) [1-Ethoxy-2-propanol] | > 90 | –
N[C@H](C(=O)O)[C@H](O)c1ccc(O)c(O)c1 [Droxidopa] | > 50 | –
CC(=O)O[C@H]1C[C@@]2(C)[C@@H](C[C@@H](O)[C@H]3[C@@]4(C)CC[C@@H](O)[C@@H](C)[C@@H]4CC[C@@]32C)/C1=C(\CCC=C(C)C)C(=O)O [Fusidate sodium] | > 50 | –

Compound | CC50 at 24 h (AC50 (uM) modified / 1000) [µM] | further results
CC(C)(Oc1ccc(C2CCCc3ccccc32)cc1)C(=O)O (centres unmarked) [Nafenopin] | > 50 | –
Oc1ccc2[nH]cc(CCCCN3CC=C(c4ccccc4)CC3)c2c1 [Roxindole] | 7.71 | –
CCCCCCCCCCOC(=O)c1ccccc1C(=O)OCCCCCCCCCC [Didecyl phthalate] | > 90 | –
O=S(=O)(O)C(F)(F)F [Trifluoromethanesulfonic acid] | > 90 | –
O=NN1CCCCC1 [N-Nitrosopiperidine] | – | CC50 at 24 h (AC50 (uM) modified / 1000, Tox21_110001=Tox21_200267, viability, 1 nM T3 present, 24 h): > 90 µM
CCCCCCCCOc1ccc(C(=O)c2ccccc2)c(O)c1 [Octabenzone] | > 90 | –
CCC(=O)O[C@H]1CC[C@H]2[C@@H]3CCc4cc(O)ccc4[C@H]3CC[C@]12C [beta-Estradiol 17-propionate] | 26.8 | –
O=C(NO)C1(NS(=O)(=O)c2ccc(Oc3ccc(F)cc3)cc2)CCOCC1 [CP-544439] | > 90 | –
CCCCCCCCCCCC(=O)OC [Methyl dodecanoate] | > 90 | –
Oc1cc(O)c2c(c1)O[C@H](c1ccc(O)c(O)c1)[C@H](O)C2 [(-)-Epicatechin] | > 50 | –
C/C=C/C1=C(C(=O)O)N2C(=O)[C@@H](NC(=O)[C@H](N)c3ccc(O)cc3)[C@H]2SC1 [Cefprozil monohydrate] | > 50 | –
O=C1CC2(CCCC2)CC(=O)N1CCCCN1CCN(c2ncccn2)CC1 [Buspirone] | 89.7 | –
OCCN1CCN(CCCN2c3ccccc3Sc3ccc(Cl)cc32)CC1 [Perphenazine] | 4.46 | –
O=S(=O)(O)CC(O)CCl (centres unmarked) [Sodium 3-chloro-2-hydroxypropane-1-sulfonate] | > 90 | –
COc1cccc2c1[C@@H]1CN(CCCCn3c(=O)[nH]c4c(sc5ncc(-c6ccccc6)nc54)c3=O)C[C@@H]1CO2 [Fiduxosin hydrochloride] | 13.1 | –
C[C@](N)(Cc1ccc(O)c(O)c1)C(=O)O [Methyldopa sesquihydrate] | > 90 | –
C[N+]1(CC2COC(c3ccccc3)(c3ccccc3)O2)CCCCC1 (centres unmarked) [Anacolin] | > 50 | –
Cc1ccc2c(c1)C(=O)OC2=O [4-Methylphthalic anhydride] | > 90 | –
ON=C1CCCC1 [Cyclopentanone oxime] | > 90 | –
CC(C(O)c1ccccc1)N(C)CCOC(c1ccccc1)c1ccccc1 (centres unmarked) [Difeterol] | 15.1 | –
CC(C)(C)OO [tert-Butyl hydroperoxide (70% Solution in Water)] | > 90 | –
CCC1(CC)C(=O)NC(=O)NC1=O [Sodium barbital] | > 90 | –

Compound | CC50 at 24 h (AC50 (uM) modified / 1000) [µM] | further results
CC(=O)OCC1=C(C(=O)O)N2C(=O)[C@@H](NC(=O)Cc3cccs3)[C@H]2SC1 [Cephalothin] | > 50 | –
N#CC1(O)CCCCC1 [Cyclohexanone cyanohydrin] | > 90 | –
C=CCOCC(O)CO (centres unmarked) [Glycerol 1-allylether] | > 90 | –
CC(=O)OC/C=C(\C)CC/C=C(\C)CCC=C(C)C [trans,trans-Farnesyl acetate] | > 90 | –
CS(=O)(=O)c1ccc([C@@H](O)[C@@H](CF)NC(=O)C(Cl)Cl)cc1 [Florfenicol] | > 20 | –
COc1ccc(O)c(C(C)(C)C)c1 [Butylated hydroxyanisole] | > 90 | –
COC(=O)[C@H](c1ccccc1Cl)N1CCc2sccc2C1 [Clopidogrel hydrogen sulfate] | > 50 | –
N#CNC#N [Cyanamide,cyano-,sodium salt] | – | CC50 at 24 h (AC50 (uM) modified / 1000, Tox21_110001=Tox21_202811, viability, 1 nM T3 present, 24 h): > 90 µM
COc1nc(C)nc(NC(=O)NS(=O)(=O)c2ccccc2Cl)n1 [Chlorsulfuron] | > 90 | –
CCc1cn([C@H]2C[C@H](O)[C@@H](CO)O2)c(=O)[nH]c1=O [Edoxudine] | > 50 | –
CC(C)c1cccc(O)c1 [3-Isopropylphenol] | > 100 | –
O=C1CCC(c2ccccc2)(C2CCN(Cc3ccccc3)CC2)C(=O)N1 (centres unmarked) [Benzetimide] | > 50 | –
CCCCN1CCCC[C@H]1C(=O)Nc1c(C)cccc1C [Levobupivacaine hydrochloride] | > 50 | –
O=C1CC[C@@H](C(=O)O)N1 [Pidolic acid] | > 50 | –
CC(=O)Nc1ccccc1C [N-Acetyl-o-toluidine] | > 100 | –
CCCCOC(=O)[C@H](C)O [Butyl (2S)-2-hydroxypropanoate] | > 90 | –
Cc1ccc2c(c1)CCCN2 [6-Methyl-1,2,3,4-tetrahydroquinoline] | > 90 | –
CC(=O)/C=C/C1=C(C)CCCC1(C)C [beta-Ionone] | > 90 | –
Cc1ccsc1C(=CCCN1CCC[C@@H](C(=O)O)C1)c1sccc1C [Tiagabine hydrochloride] | > 50 | –
